The results in this text go back to patent US8481551B2, “Gyrase and topoisomerase IV inhibitors” (Vertex Pharmaceuticals Incorporated, priority 2011, dated 2013).

Series [1] in a line: Pharmacokinetics, rat IV study. The settings on record: male Sprague Dawley rats, plasma, analyte as labelled; for AUC: male, Sprague Dawley, rat, iv.
The nature of series [2]: Pharmacokinetics, monkey IV study. The following applies: male, cynomolgus monkey, plasma, 5 mg/kg, Compound W dosed IV 5 mg/kg in D5W, label = analyte.
The next series deals with Fusobacterium spp. Nature of the series: Gyrase MIC, agar dilution method (Protocol 3). The following applies: 16 isolates tested. Type of series: cell-based. (In general: Agar dilution tests growth on a series of plates holding different concentrations.)
The next series concerns Prevotella spp. As to the kind of experiment: Gyrase MIC, agar dilution method (Protocol 3). Type of series: cell-based. The settings on record: 13 isolates tested.
Series [3] relates to Staphlococcus epidermidis. Nature of the series: Gyrase MIC, microdilution broth method (Protocol 1). Type of series: cell-based, Staphylococcus epidermidis. The following applies: 35 isolates tested. (In broth dilution the organism is exposed to a series of concentrations in liquid medium.)
A further series relates to Klebsiella pneumoniae. As to the kind of experiment: Gyrase MIC against Gram negatives, microdilution broth method (Protocol 2). The format is cell-based.
The test system of another series is Proteus mirabilis. Described as above. The format is cell-based. The following applies: 12 isolates tested.
Another series relates to S. aureus (ATCC 29213). As to the kind of experiment: Neutropenic rat thigh infection model. The format is in vivo, Sprague Dawley rats. An excerpt: Animals: Specific-pathogen-free, male Sprague Dawley rats weighing between 76 to 100 grams were obtained from Charles River Laboratories, Inc. (Wilmington, Mass.) and utilized in this experiment. Animals were allowed to acclimate for a minimum of seven (7) days before study commencement. Bacteria: The methicillin-sensitive Staphylococcus aureus(MSSA) ATCC strain 29213 was utilized for in vivo experimentation. The test isolate was subcultured twice onto standard microbiological agar media (trypticase soy agar with 5% sheep blood). The second transfer was made less than 24 hours before use in the preparation of the thigh infection model inoculum. Neutropenic Rat Thigh Infection Model: To induce neutropenia, rats were treated with the immunosuppressant cyclophosphamide at 150 mg/kg, administered in 1 ml by intraperitoneal (IP) injection, three day prior to infection. Rats were infected by an intramuscular (IM) 0.2 ml injection into both rear thighs with a 10^7 cfu/ml methicillin-sensitive Staphylococcus aureus 29213 suspension in normal saline. After increasing amounts of time (2-26 hours) the two rear thighs of each animal were harvested, rinsed with sterile saline, weighed, then placed in 50 ml sterile normal saline and placed on wet ice until homogenization. Approximately one-half of the total homogenized sample volume was passed through a large pore filter (to remove cartilage and large clumped pieces of tissue), diluted in saline and cultured onto agar media plates (trypticase soy agar with 5% sheep blood). All culture plates were incubated at approximately 37° C. for 18-24 hours. Colony-forming units were enumerated (in cfu/ml of homogenate) and the median for each treatment and control group was calculated. […] The median cfu/ml per group was compared to the initial bacterial density at 2 hours (Early Control) or that of the time-matched vehicle control group (Late Control; LC) group harvested simultaneously. […] After 2 hours a single group of rats (Early Control (EC) was euthanized and the thighs harvested, homogenized and plated to quantitate S. aureus burdens. The additional infected rats were treated by oral gavage with Vehicle at 10 ml/kg (20% Cavitron/1% HPMCAS-MG; […] The 8-hour treatment groups received a single treatment (QD) and were euthanized and thighs collected for cfu determination 8 hours post treatment (QD), while the 24-hour treatment groups received 2 doses 12 hours apart (q12 h) and were euthanized and thighs collected 24 hours post treatment. […] After 2 hours a single group of rats (Early Control (EC)) was euthanized and the thighs harvested, homogenized and plated to quantitate S. aureus burdens. The additional infected rats were treated by oral gavage with Vehicle at 10 ml/kg (10% Vitamin E/TPGS; […] The 8-hour treatment groups received a single treatment (QD) and were euthanized and thighs collected for cfu determination 8 hours post treatment (QD), while the 24 hour treatment groups received 2 doses 12 hours apart (q12 h) and were euthanized and thighs collected 24 hours post treatment.

The test system of series [4] is Bacteroides and Parabacter spp. Nature of the series: Gyrase MIC, agar dilution method (Protocol 3). The settings on record: 26 isolates tested. Type of series: cell-based.
A further series has as its system Mycobacterium avium. As to the kind of experiment: MIC determination procedure for Mycobacterium species (Protocol 4). The format is cell-based.
A further series has as its system Clostridium perfringens. Nature of the series: microbe, parasite or virus in culture. Type of series: cell-based.
The next series concerns Bacillus subtilis. As to the kind of experiment: Gyrase MIC, microdilution broth method (Protocol 1). Type of series: cell-based.
Another series concerns Acinetobacter baumannii. Nature of the series: Gyrase MIC against Gram negatives, microdilution broth method (Protocol 2). Type of series: cell-based.
The test system of another series is Streptococcus pneumoniae. Nature of the series: Gyrase MIC, microdilution broth method (Protocol 1). The settings on record: ATCC10015.
Setting [5] is: Compound W 1 mg/kg single IV bolus in D5W.
Setting [6] is: Compound W 5 mg/kg single IV bolus in D5W.
Where [7] appears, read: 1 mg/kg, AUC, Compound W 1 mg/kg single IV bolus in D5W.
Setting [8] is: 1 mg/kg, AUCextrap, Compound W 1 mg/kg single IV bolus in D5W.
[9] abbreviates: 5 mg/kg, AUC, Compound W 5 mg/kg single IV bolus in D5W.
[10] abbreviates: 5 mg/kg, AUCextrap, Compound W 5 mg/kg single IV bolus in D5W.
Where [11] appears, read: 8 hours after the first dose, 10 mg/kg oral.
Where [12] appears, read: Table 8: 10 mg/kg oral, QD, 8 Hours.
Where [13] appears, read: Table 8: 10 mg/kg oral, q12 h, 24 Hours.
The mark [14] stands for this setting: Table 8: 30 mg/kg oral, QD, 8 Hours.
Setting [15] is: Table 8: 30 mg/kg oral, q12 h, 24 Hours.
[16] abbreviates: Table 8: 60 mg/kg oral, QD, 8 Hours.
[17] abbreviates: Table 8: 60 mg/kg oral, q12 h, 24 Hours.

Structures are written as SMILES. Structures can show the parent of a compound that is named as a salt. Some results are limits rather than exact numbers.

One may read the AUC as concentration integrated over time. As for `CCNC(=O)Nc1nc2cc(-c3cnc(C(C)(C)O)nc3)c(F)c([C@H]3CCCO3)c2[nH]1` [Compound 23, 1-ethyl-3-[6-fluoro-5-[2-(1-hydroxy-1-methyl-ethyl)pyrimidin-5-yl]-7-[(2R)-tetrahydrofuran-2-yl]-1H-benzimidazol-2-yl]urea], the Cl_obs in series [1] (setting [5]) was 54.9 mL/min/kg; in [1] (setting [6]), 27.3 mL/min/kg. The figures for the Vss_obs in [1] (setting [5]) and in series [1] (setting [6]) were 3.8 L/kg and 4.08 L/kg, respectively. In addition, the AUC in [1] (setting [7]) is 306 ng·h/mL; in [1] (setting [8]), 310 ng·h/mL; in series [1] (setting [9]), 3040 ng·h/mL; in series [1] (setting [10]) it was 3060 ng·h/mL; in [2] (AUCextrap), 3810 ng·h/mL.

For orientation: MIC means the least concentration at which growth counts as inhibited. Take `CCNC(=O)Nc1nc2cc(-c3cnc(C(C)(C)O)nc3)c(F)c([C@H]3CCCO3)c2[nH]1` [Compound 23A, methanesulfonic acid salt of 1-ethyl-3-[6-fluoro-5-[2-(1-hydroxy-1-methyl-ethyl)pyrimidin-5-yl]-7-[(2R)-tetrahydrofuran-2-yl]-1H-benzimidazol-2-yl]urea]: the MIC90 is over 16 µg/mL against Fusobacterium spp.; 16 µg/mL against Prevotella spp.; 0.03 µg/mL in series [3] (Staphylococcus epidermidis); over 8 µg/mL with Klebsiella pneumoniae (Klebsiella pneumoniae, 12 isolates tested); over 8 µg/mL against Proteus mirabilis; 16 µg/mL in series [4]. The MIC90 was 0.5 µg/mL in the series with Clostridium perfringens and over 8 µg/mL in the series with Acinetobacter baumannii (Acinetobacter baumannii, 12 isolates tested). Also, the “MIC Range” value in the series with Prevotella spp. was in the range of 0.06 to 16 µg/mL; in series [3], 0.008 to 0.03 µg/mL; in series [4], 0.12 to 16 µg/mL; with Clostridium perfringens (12 isolates tested, Protocol 3), 0.12 to 0.5 µg/mL. Moreover, the MIC against Klebsiella pneumoniae (ATCC700603, Klebsiella pneumoniae ATCC 700603) worked out at 16 µg/mL; in the series with Klebsiella pneumoniae (ATCCBAA1705, Klebsiella pneumoniae ATCC BAA-1705), 12 µg/mL; against Mycobacterium avium (M. avium 3404.4), 0.23 µg/mL; against Mycobacterium avium (M. avium Far), 0.23 µg/mL; in the series on Mycobacterium avium (Mycobacterium avium 103), 0.18 µg/mL; in the series on Bacillus subtilis (ATCC6051, Bacillus subtilis (168) ATCC 6051), 4 µg/mL. Further, the MIC against Bacillus subtilis (ATCC6638, Bacillus subtilis ATCC 6638) came to 2 µg/mL; with Acinetobacter baumannii (ATCC19606, Acinetobacter baumannii ATCC 19606), 8 µg/mL; in the series on Acinetobacter baumannii (ATCCBAA1710, Acinetobacter baumannii ATCC BAA-1710) it was 6 µg/mL. The “bacterial growth compared to early control” value with S. aureus (ATCC 29213) (setting [11]) is “held the bacterial growth of SA 29213 to at least the point of stasis”. In addition, the “log reduction in burdens compared to time-matched control” value is about 1.3 log in the series on S. aureus (ATCC 29213) (setting [11]); about 2 log in the series with S. aureus (ATCC 29213) (8 hours after the first dose, 30 and 60 mg/kg oral). In addition, in the series on S. aureus (ATCC 29213) (8 hours after the first dose, 60 and 100 mg/kg (so in the source)), the “decrease of bacterial burden compared to early control” value was 0.5-0.6 logs. The “log reduction compared to early control” value in the series on S. aureus (ATCC 29213) (24 hours, second dose at 12 hours, 10 mg/kg) was “approximately 0.8 log”. In addition, the “log reductions compared to early control” value in the series on S. aureus (ATCC 29213) (24 hours, second dose at 12 hours, 30 and 60 mg/kg) is 1.1-1.2 log. In addition, the “decrease in bacterial density compared to late control” value in the series with S. aureus (ATCC 29213) (24 hours, second dose at 12 hours, all treatment groups (10, 30, 60 mg/kg)) is on record as 2.4-2.8 logs. Moreover, the “Median Thigh Burden (Log cfu/mL)” value was 5.42 Log cfu/mL with S. aureus (ATCC 29213) (Table 8: 10 mg/kg oral gavage, single treatment (QD), 8 Hours); 4.59 Log cfu/mL in the series on S. aureus (ATCC 29213) (Table 8: 10 mg/kg oral, 2 doses 12 hours apart (q12 h), 24 Hours); 4.75 Log cfu/mL in the series on S. aureus (ATCC 29213) (setting [14]); 4.31 Log cfu/mL in the series on S. aureus (ATCC 29213) (setting [15]); 4.80 Log cfu/mL in the series with S. aureus (ATCC 29213) (setting [16]); 4.19 Log cfu/mL in the series on S. aureus (ATCC 29213) (setting [17]). Moreover, the “Log Difference vs. Early Control” value with S. aureus (ATCC 29213) (setting [12]) is 0.05; in the series with S. aureus (ATCC 29213) (setting [13]), −0.78; in the series on S. aureus (ATCC 29213) (setting [14]) it was −0.62; in the series with S. aureus (ATCC 29213) (setting [15]), −1.06; in the series with S. aureus (ATCC 29213) (setting [16]) it was −0.57; with S. aureus (ATCC 29213) (setting [17]), −1.18. For the same compound, the “Log Reduction vs. Late Control (8-hour)” value with S. aureus (ATCC 29213) (setting [12]) is −1.36; in the series with S. aureus (ATCC 29213) (setting [14]) it was −2.02; in the series on S. aureus (ATCC 29213) (setting [16]) it was −1.97. The “Log Difference vs. Late Control (24-hour)” value in the series with S. aureus (ATCC 29213) (setting [13]) is reported as −2.40; with S. aureus (ATCC 29213) (setting [15]) it was −2.68; with S. aureus (ATCC 29213) (setting [17]) it was −2.80.

For the compound `CCNC(=O)Nc1nc2cc(-c3cnc(C(C)(C)OP(=O)([O-])[O-])nc3)c(F)c([C@H]3CCCO3)c2[nH]1.[Na+].[Na+]` [Compound W, disodium (R)-2-(5-(2-(3-ethylureido)-6-fluoro-7-(tetrahydrofuran-2-yl)-1H-benzo[d]imidazol-5-yl)pyrimidin-2-yl)propan-2-yl phosphate], 0.25 µg/mL was the least that counted as inhibitory in the series with Streptococcus pneumoniae (MIC). Besides, the results for the Cl_obs in series [1] (setting [5]) and in series [1] (setting [6]) were 46.7 mL/min/kg and 84.6 mL/min/kg, respectively. Further, the Vss_obs stood at 0.38 L/kg in series [1] (setting [5]) and 5.8 L/kg in series [1] (setting [6]). Moreover, the AUC in series [1] (setting [7]) was 416 ng·h/mL; in series [1] (setting [8]) it was 419 ng·h/mL; in series [1] (setting [9]), 1110 ng·h/mL; in series [1] (setting [10]), 1120 ng·h/mL; in series [2] (AUC) it was 5790 ng·h/mL; in series [2] (AUCextrap), 5830 ng·h/mL.
